# pKi: −log10 of the molar value.
# Molecular target: T1, chimeric human H3 receptor (Homo sapiens, UniProt Q9Y5N1, E19D)
# T1 construct: made in house; host or cells: Sf9 insect cells (baculovirus infection); P2 membrane preparation
# Experiment: Chimeric human H3 receptor GTP binding assay (agonist-stimulated GTP-gamma35S binding, Example 7)
# Assay type: biochemical
# Conditions: Table II; assay of Example 7; "*" in Ki; read-out: Ki
# Summary of the method: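 Sf9 membranes co-expressing the chimeric receptor and heterotrimeric G-protein subunits, 35 μg protein per tube, in pH 7.4 Tris buffer with 10 μM GDP. Test compounds at 10^−10 to 10^−6 M with 1 μM histamine, 60 min at room temperature. Filter-bound GTP-gamma^35S read by scintillation; IC50 from non-linear regression of dose-response curves.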
# T1 sequence (Q9Y5N1 with tags, fused parts or gaps E19D): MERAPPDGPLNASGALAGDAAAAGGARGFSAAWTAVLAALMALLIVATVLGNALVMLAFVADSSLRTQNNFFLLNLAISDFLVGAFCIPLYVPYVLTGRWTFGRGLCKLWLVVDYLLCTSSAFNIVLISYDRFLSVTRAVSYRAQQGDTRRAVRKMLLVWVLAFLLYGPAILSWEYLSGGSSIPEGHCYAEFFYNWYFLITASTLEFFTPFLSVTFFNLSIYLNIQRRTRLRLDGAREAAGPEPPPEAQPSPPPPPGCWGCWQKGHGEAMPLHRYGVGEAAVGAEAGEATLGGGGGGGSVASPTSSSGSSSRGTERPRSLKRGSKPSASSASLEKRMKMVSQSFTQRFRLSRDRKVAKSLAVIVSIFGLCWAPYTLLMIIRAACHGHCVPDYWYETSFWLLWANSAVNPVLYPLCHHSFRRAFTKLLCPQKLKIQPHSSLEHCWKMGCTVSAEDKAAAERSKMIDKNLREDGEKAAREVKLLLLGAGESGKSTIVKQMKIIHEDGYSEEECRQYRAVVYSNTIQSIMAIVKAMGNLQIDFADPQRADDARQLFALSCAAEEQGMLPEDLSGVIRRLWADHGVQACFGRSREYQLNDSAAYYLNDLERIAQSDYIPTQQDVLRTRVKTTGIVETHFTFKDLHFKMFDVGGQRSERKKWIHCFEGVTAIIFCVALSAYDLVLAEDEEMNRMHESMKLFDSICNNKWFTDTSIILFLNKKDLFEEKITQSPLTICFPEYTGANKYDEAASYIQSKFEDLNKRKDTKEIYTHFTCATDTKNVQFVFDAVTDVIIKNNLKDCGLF
row,Structure (SMILES),pKi
1,"CC(C)Oc1cccc(-c2ccc(N3CCN(CC(=O)N4CCN(C5CCC5)CC4)CC3)nn2)c1 [Compound 1030, 3-{4-[2-(4-cyclobutylpiperazin-1-yl)-2-oxoethyl]piperazin-1-yl}-6-(3-isopropoxyphenyl) pyridazine]",> 6.00
2,"COc1ccc(-c2ccc(N3CCN(CC(=O)N4CCN(C5CCC5)CC4)CC3)nn2)cc1OC [Compound 1033, 3-{4-[2-(4-cyclobutylpiperazin-1-yl)-2-oxoethyl]piperazin-1-yl}-6-(3,4-dimethoxyphenyl) pyridazine]",> 6.00
3,"CCOc1ccc(-c2ccc(N3CCN(CC(=O)N4CCN(C5CCC5)CC4)CC3)nn2)cc1 [Compound 1034, 3-{4-[2-(4-cyclobutylpiperazin-1-yl)-2-oxoethyl]piperazin-1-yl}-6-(4-ethoxyphenyl)pyridazine]",> 6.00
4,"O=C(CN1CCN(c2ccc(-c3ccc4c(c3)OCCO4)nn2)CC1)N1CCN(C2CCC2)CC1 [Compound 1035, 3-{4-[2-(4-cyclobutylpiperazin-1-yl)-2-oxoethyl]piperazin-1-yl}-6-(2,3-dihydro-1,4-benzodioxin-6-yl)pyridazine]",> 6.00
5,"COc1ccc(-c2ccc(N3CCN(CC(=O)N4CCN(C5CCC5)CC4)CC3)nn2)c(C)c1 [Compound 1038, 3-{4-[2-(4-cyclobutylpiperazin-1-yl)-2-oxoethyl]piperazin-1-yl}-6-(4-methoxy-2-methylphenyl)pyridazine]",> 6.00
6,"COc1ccc(C(C)C)cc1-c1ccc(N2CCN(CC(=O)N3CCN(C4CCC4)CC3)CC2)nn1 [Compound 1040, 3-{4-[2-(4-cyclobutylpiperazin-1-yl)-2-oxoethyl]piperazin-1-yl}-6-(5-isopropyl-2-methoxyphenyl) pyridazine]",> 6.00
7,"COc1ccc(-c2ccc(N3CCN(CC(=O)N4CCN(C5CCC5)CC4)CC3)nn2)c(OC)c1 [Compound 1042, 3-{4-[2-(4-cyclobutylpiperazin-1-yl)-2-oxoethyl]piperazin-1-yl}-6-(2,4-dimethoxyphenyl) pyridazine]",> 6.00
8,"O=C(CN1CCN(c2ccc(-c3ccccc3Oc3ccccc3)nn2)CC1)N1CCN(C2CCC2)CC1 [Compound 1047, 3-{4-[2-(4-cyclobutylpiperazin-1-yl)-2-oxoethyl]piperazin-1-yl}-6-(2-phenoxyphenyl) pyridazine]",> 6.00
9,"O=C(CN1CCN(c2ccc(-c3cc(F)ccc3F)nn2)CC1)N1CCN(C2CCC2)CC1 [Compound 1048, 3-{4-[2-(4-cyclobutylpiperazin-1-yl)-2-oxoethyl]piperazin-1-yl}-6-(2,5-difluorophenyl)pyridazine]",> 6.00
10,"O=C(CN1CCN(c2ccc(-c3cc(F)cc(F)c3)nn2)CC1)N1CCN(C2CCC2)CC1 [Compound 1052, 3-{4-[2-(4-cyclobutylpiperazin-1-yl)-2-oxoethyl]piperazin-1-yl}-6-(3,5-difluorophenyl)pyridazine]",> 6.00
11,"O=C(CN1CCN(c2ccc(-c3cccc(Cl)c3Cl)nn2)CC1)N1CCN(C2CCC2)CC1 [Compound 1054, 3-{4-[2-(4-cyclobutylpiperazin-1-yl)-2-oxoethyl]piperazin-1-yl}-6-(2,3-dichlorophenyl)pyridazine]",> 6.00
12,"O=C(CN1CCN(c2ccc(-c3ccc(Cl)cc3Cl)nn2)CC1)N1CCN(C2CCC2)CC1 [Compound 1055, 3-{4-[2-(4-cyclobutylpiperazin-1-yl)-2-oxoethyl]piperazin-1-yl}-6-(2,4-dichlorophenyl)pyridazine]",> 6.00
13,"COc1cccc(OC)c1-c1ccc(N2CCN(CC(=O)N3CCN(C4CCC4)CC3)CC2)nn1 [Compound 1057, 3-{4-[2-(4-cyclobutylpiperazin-1-yl)-2-oxoethyl]piperazin-1-yl}-6-(2,6-dimethoxyphenyl) pyridazine]",> 6.00
14,"CC(C)c1ccccc1-c1ccc(N2CCN(CC(=O)N3CCN(C4CCC4)CC3)CC2)nn1 [Compound 1058, 3-{4-[2-(4-cyclobutylpiperazin-1-yl)-2-oxoethyl]piperazin-1-yl}-6-(2-isopropylphenyl) pyridazine]",> 6.00
15,"Cc1cccc(C)c1-c1ccc(N2CCN(CC(=O)N3CCN(C4CCC4)CC3)CC2)nn1 [Compound 1059, 3-{4-[2-(4-cyclobutylpiperazin-1-yl)-2-oxoethyl]piperazin-1-yl}-6-(2,6-dimethylphenyl) pyridazine]",> 6.00
16,"Cc1cc(C)c(-c2ccc(N3CCN(CC(=O)N4CCN(C5CCC5)CC4)CC3)nn2)c(C)c1 [Compound 1061, 3-{4-[2-(4-cyclobutylpiperazin-1-yl)-2-oxoethyl]piperazin-1-yl}-6-mesitylpyridazine]",> 6.00

# Other lines, results leading:
row,pKi,Structure (SMILES)
1,> 6.00,"COc1cc(-c2ccc(N3CCN(CC(=O)N4CCN(C5CCC5)CC4)CC3)nn2)cc(OC)c1OC [Compound 1031, 3-{4-[2-(4-cyclobutylpiperazin-1-yl)-2-oxoethyl]paperazin-1-yl}-6-(3,4,5-trimethoxyphenyl) pyridazine]"
2,> 6.00,"COc1ccc(-c2ccc(N3CCN(CC(=O)N4CCN(C5CCC5)CC4)CC3)nn2)cc1 [Compound 1032, 3-{4-[2-(4-cyclobutylpiperazin-1-yl)-2-oxoethyl]piperazin-1-yl}-6-(4-methoxyphenyl) pyridazine]"
3,> 6.00,"COc1ccc(-c2ccc(N3CCN(CC(=O)N4CCN(C5CCC5)CC4)CC3)nn2)cc1C [Compound 1036, 3-{4-[2-(4-cyclobutylpiperazin-1-yl)-2-oxoethyl]piperazin-1-yl}-6-(4-methoxy-3-methylphenyl)pyridazine]"
4,> 6.00,"CCCOc1ccc(-c2ccc(N3CCN(CC(=O)N4CCN(C5CCC5)CC4)CC3)nn2)cc1 [Compound 1037, 3-{4-[2-(4-cyclobutylpiperazin-1-yl)-2-oxoethyl]piperazin-1-yl}-6-(4-propoxyphenyl) pyridazine]"
5,> 6.00,"COc1ccccc1-c1ccc(N2CCN(CC(=O)N3CCN(C4CCC4)CC3)CC2)nn1 [Compound 1039, 3-{4-[2-(4-cyclobutylpiperazin-1-yl)-2-oxoethyl]piperazin-1-yl}-6-(2-methoxyphenyl) pyridazine]"
6,> 6.00,"COc1ccc(OC)c(-c2ccc(N3CCN(CC(=O)N4CCN(C5CCC5)CC4)CC3)nn2)c1 [Compound 1041, 3-{4-[2-(4-cyclobutylpiperazin-1-yl)-2-oxoethyl]piperazin-1-yl}-6-(2,5-dimethoxyphenyl) pyridazine]"
7,> 6.00,"CCOc1ccccc1-c1ccc(N2CCN(CC(=O)N3CCN(C4CCC4)CC3)CC2)nn1 [Compound 1043, 3-{4-[2-(4-cyclobutylpiperazin-1-yl)-2-oxoethyl]piperazin-1-yl}-6-(2-ethoxyphenyl)pyridazine]"
8,> 6.00,"O=C(CN1CCN(c2ccc(-c3cccc4c3oc3ccccc34)nn2)CC1)N1CCN(C2CCC2)CC1 [Compound 1044, 3-{4-[2-(4-cyclobutylpiperazin-1-yl)-2-oxoethyl]piperazin-1-yl}-6-dibenzo[b,d]furan-4-ylpyridazine]"
9,> 6.00,"COc1ccc(F)cc1-c1ccc(N2CCN(CC(=O)N3CCN(C4CCC4)CC3)CC2)nn1 [Compound 1045, 3-{4-[2-(4-cyclobutylpiperazin-1-yl)-2-oxoethyl]piperazin-1-yl}-6-(5-fluoro-2-methoxyphenyl) pyridazine]"
10,> 6.00,"COc1ccc(C)cc1-c1ccc(N2CCN(CC(=O)N3CCN(C4CCC4)CC3)CC2)nn1 [Compound 1046, 3-{4-[2-(4-cyclobutylpiperazin-1-yl)-2-oxoethyl]piperazin-1-yl}-6-(2-methoxy-5-methylphenyl) pyridazine]"
11,> 6.00,"O=C(CN1CCN(c2ccc(-c3ccc(F)c(F)c3)nn2)CC1)N1CCN(C2CCC2)CC1 [Compound 1049, 3-{4-[2-(4-cyclobutylpiperazin-1-yl)-2-oxoethyl]piperazin-1-yl}-6-(3,4-difluorophenyl)pyridazine]"
12,> 6.00,"O=C(CN1CCN(c2ccc(-c3cc(Cl)cc(Cl)c3)nn2)CC1)N1CCN(C2CCC2)CC1 [Compound 1050, 3-{4-[2-(4-cyclobutylpiperazin-1-yl)-2-oxoethyl]piperazin-1-yl}-6-(3,5-dichlorophenyl)pyridazine]"
13,> 6.00,"O=C(CN1CCN(c2ccc(-c3ccc(Cl)c(Cl)c3)nn2)CC1)N1CCN(C2CCC2)CC1 [Compound 1051, 3-{4-[2-(4-cyclobutylpiperazin-1-yl)-2-oxoethyl]piperazin-1-yl}-6-(3,4-dichlorophenyl)pyridazine]"
14,> 6.00,"O=C(CN1CCN(c2ccc(-c3cccc(F)c3F)nn2)CC1)N1CCN(C2CCC2)CC1 [Compound 1053, 3-{4-[2-(4-cyclobutylpiperazin-1-yl)-2-oxoethyl]piperazin-1-yl}-6-(2,3-difluorophenyl)pyridazine]"
15,> 6.00,"O=C(CN1CCN(c2ccc(-c3ccccc3C(F)(F)F)nn2)CC1)N1CCN(C2CCC2)CC1 [Compound 1056, 3-{4-[2-(4-cyclobutylpiperazin-1-yl)-2-oxoethyl]piperazin-1-yl}-6-[2-(trifluoromethyl)phenyl] pyridazine]"
16,> 6.00,"O=C(CN1CCN(c2ccc(-c3cc(Cl)ccc3Cl)nn2)CC1)N1CCN(C2CCC2)CC1 [Compound 1060, 3-{4-[2-(4-cyclobutylpiperazin-1-yl)-2-oxoethyl]piperazin-1-yl}-6-(2,5-dichlorophenyl)pyridazine]"
17,> 6.00,"O=C(CN1CCN(c2ccc(-c3ccc(C(F)(F)F)cc3)nn2)CC1)N1CCN(C2CCC2)CC1 [Compound 1062, 3-{4-[2-(4-cyclobutylpiperazin-1-yl)-2-oxoethyl]piperazin-1-yl}-6-[4-(trifluoromethyl)phenyl] pyridazine]"
18,> 6.00,"O=C(CN1CCN(c2ccc(-c3cccc(C(F)(F)F)c3)nn2)CC1)N1CCN(C2CCC2)CC1 [Compound 1063, 3-{4-[2-(4-cyclobutylpiperazin-1-yl)-2-oxoethyl]piperazin-1-yl}-6-[3-(trifluoromethyl)phenyl] pyridazine]"
